Results reported in patent US8153625B2, “Nitrogen-containing heterocyclic compounds and medicinal use thereof” (Ono Pharmaceutical Co., Ltd., priority 2002, dated 2012).

What was measured:
CXCR4 = biological target: T1, CXCR4 (Homo sapiens, UniProt P61073); test: Inhibition of binding of human 125I-SDF-1 to CEM cells; conditions: 125I-SDF-1 binding to human T cell line CEM
T1 construct: a human T cell line known to express CXCR4 can be employed; endogenous in cells; host or cells: CEM (human T cell line), whole cells
From the text: Typically, as an assay for screening for a compound which inhibits the binding between SDF-1 and CXCR4, a system measuring the binding between an I-labeled SDF-1 and a human T cell line known to express CXCR4 can be employed. Since both of a macrophage (R5) HIV and RANTES, MIP- 1 a, MIP-1I3 bind to CCR5, a similar understanding is possible.
Inhibition of Human SDF-1 with CEM Cell
In a binding buffer solution (HEPES containing BSA), a human T cell line CEM cell was mixed with a test compound and ^125I-SDF-1 (NEN) and incubated for 60 minutes at […]. The reacted CEM cell was filtered rapidly through a GF/B membrane filter plate (Packard) to effect adsorption, followed by washing three times with PBS, drying and addition of Microscint+20 (Packard).

T1 sequence (P61073 whole entry): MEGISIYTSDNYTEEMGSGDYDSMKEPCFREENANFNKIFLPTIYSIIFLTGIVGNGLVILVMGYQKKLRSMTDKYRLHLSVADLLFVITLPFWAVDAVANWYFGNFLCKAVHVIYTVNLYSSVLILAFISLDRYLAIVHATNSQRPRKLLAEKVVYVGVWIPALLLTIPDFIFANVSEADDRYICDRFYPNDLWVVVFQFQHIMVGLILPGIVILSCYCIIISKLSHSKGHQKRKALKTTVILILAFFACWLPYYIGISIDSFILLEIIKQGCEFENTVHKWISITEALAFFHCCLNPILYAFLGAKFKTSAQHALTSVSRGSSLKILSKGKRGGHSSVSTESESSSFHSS

A melting point of 100 to 102 °C and an IC50 (CXCR4) of 200 nM were found for Cl.Cl.NCCNc1nccc(N2CCCCCC2)n1 [Example 1(41), 2-(2-aminoethylamino)-4-(perhydroazepin-1-yl)pyrimidine dihydrochloride] in this work.
An IC50 (CXCR4) of 150 nM was found for c1ccc(CN2CCC(Nc3nccc(N4CCCCCC4)n3)C2)cc1 (stereo not drawn) [Example 4, 2-(1-benzylpyrrolidin-3-ylamino)-4-(perhydroazepin-1-yl)pyrimidine] in this work.
